The compounds below were run against T1, EGFR (Homo sapiens, UniProt P00533) (assay: EGFR ELISA assay (in vitro kinase activity, EGFR captured from A431 cell lysate)).
T1 construct: Add 7 ug A431 cell lysate per well (EGFR source); endogenous in cells; host or cells: A431
Format: biochemical
Parameters: concentration or dose not given beside the values
Outline: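 EGFR from A431 lysate was captured on plates coated with anti-EGFR antibody. Compounds were added 30 min before a 5 min phosphorylation with 3 µM ATP/5 mM MnCl2, which was stopped with 20 mM EDTA. Phosphotyrosine was detected with rabbit anti-phosphotyrosine, then a peroxidase-conjugated secondary and ABTS/H2O2, read at 410 nm.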

T1 sequence (P00533 25-1210): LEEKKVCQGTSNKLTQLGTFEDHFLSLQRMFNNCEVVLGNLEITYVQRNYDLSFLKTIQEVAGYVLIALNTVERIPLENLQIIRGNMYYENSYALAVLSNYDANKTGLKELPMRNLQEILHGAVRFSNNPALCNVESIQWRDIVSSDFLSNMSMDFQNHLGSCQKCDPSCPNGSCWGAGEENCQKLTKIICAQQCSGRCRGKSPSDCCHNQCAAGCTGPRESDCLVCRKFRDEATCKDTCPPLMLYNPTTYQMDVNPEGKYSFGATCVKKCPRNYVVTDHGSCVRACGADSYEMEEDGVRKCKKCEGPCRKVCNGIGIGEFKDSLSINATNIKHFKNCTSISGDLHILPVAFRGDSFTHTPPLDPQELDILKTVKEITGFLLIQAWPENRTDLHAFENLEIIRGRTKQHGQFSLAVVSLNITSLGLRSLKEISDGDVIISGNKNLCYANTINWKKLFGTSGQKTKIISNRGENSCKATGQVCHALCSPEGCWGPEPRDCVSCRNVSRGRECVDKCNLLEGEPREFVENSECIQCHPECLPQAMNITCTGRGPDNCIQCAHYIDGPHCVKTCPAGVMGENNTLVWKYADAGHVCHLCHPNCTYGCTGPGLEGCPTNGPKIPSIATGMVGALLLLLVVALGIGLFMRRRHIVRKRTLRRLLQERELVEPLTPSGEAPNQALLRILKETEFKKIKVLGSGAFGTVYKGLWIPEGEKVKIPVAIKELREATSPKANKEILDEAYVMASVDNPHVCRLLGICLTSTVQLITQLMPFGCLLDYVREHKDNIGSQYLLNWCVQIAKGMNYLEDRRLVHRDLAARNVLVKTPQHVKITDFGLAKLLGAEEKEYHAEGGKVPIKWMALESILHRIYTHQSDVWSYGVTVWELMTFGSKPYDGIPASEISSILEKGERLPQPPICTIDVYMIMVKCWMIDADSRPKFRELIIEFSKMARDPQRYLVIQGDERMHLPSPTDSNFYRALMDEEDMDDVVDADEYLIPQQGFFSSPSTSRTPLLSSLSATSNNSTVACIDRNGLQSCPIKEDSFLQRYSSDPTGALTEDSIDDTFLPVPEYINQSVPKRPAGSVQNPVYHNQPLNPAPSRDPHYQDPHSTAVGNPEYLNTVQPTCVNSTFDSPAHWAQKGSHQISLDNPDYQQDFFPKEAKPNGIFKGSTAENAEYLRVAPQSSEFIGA

| Compound | Biochem EGFR %Inhibition [%] |
| --- | --- |
| COc1ccc2ccccc2c1C=C1C(=O)Nc2ccc(S(=O)(=O)Nc3ccc(C(F)(F)F)cc3)cc21 [10729/E02] | 8.0 |
| COc1ccc(C=C2C(=O)Nc3ccc(S(=O)(=O)Nc4ccc(C(F)(F)F)cc4)cc32)c2ccccc12 [10729/E03] | 20.1 |
| CSc1ccc(C=C2C(=O)Nc3ccc(S(=O)(=O)Nc4ccc(C(F)(F)F)cc4)cc32)cc1 [10729/E04] | 19.5 |
| Cc1ccsc1C=C1C(=O)Nc2ccc(S(=O)(=O)Nc3ccc(C(F)(F)F)cc3)cc21 [10729/E05] | 12.6 |
| O=C1Nc2ccc(S(=O)(=O)Nc3ccc(C(F)(F)F)cc3)cc2C1=Cc1cccc(Oc2ccccc2)c1 [10729/E06] | 43.7 |
| O=C1Nc2ccc(S(=O)(=O)Nc3ccc(C(F)(F)F)cc3)cc2C1=Cc1ccccn1 [10729/E07] | 26.7 |

Source: patent EP1247803A2, “Indolinone compounds suitable for modulation of protein kinases” (Sugen, Inc., priority 1996, dated 1998)
